What is called melting point is the temperature, or range, at which the solid turns liquid. Broadly, the EC50 is the concentration needed to bring the measured effect to its halfway point. Lower therefore signals higher potency in that assay.

The text below walks through data of patent publication US7550629B2, “Trifluoromethyl-containing phenylsulfonamide beta amyloid inhibitors” (Wyeth, priority 2006, dated 2009).

One data set relates to beta amyloid 42. Description: Aβ40/42 ELISA Assay: Aβ42. Type of data set: cell-based. To be noted: Cricetulus griseus; CHO cells carrying the APP-REP-NL plasmid, 22 hours, sandwich ELISA of medium. The method, then: (§1) Pharmacology: Aβ40/42 ELISA Assay
(§2) Compounds are diluted from DMSO stocks to 2 μM and below in a cell culture medium. Compounds are then applied to CHO cells carrying the APP-REP-NL plasmid [Sudhir et. al, J. Biol. Chem. 267:25602-25608 (1992)] for a period of 22 hours. After the conditioning period, medium is collected, diluted in assay buffer containing protein, and samples, controls, and synthetic peptide standards are incubated on a prepared ELISA plate. Using a sandwich ELISA with antibodies specifically directed against the carboxyl terminus of beta amyloid 40 or 42 [analogous to the method reported by Haugabook et al., J. Neurosci. Methods 108:171-179 (2001) but using goat anti-mouse IgGl (source: Southern Biotech) as the anchor, 6E10 as the capture antibody (Source: SENETEK), rabbit antiαβ40 and antiαβB42 (source: QCB) and APL-donkey anti-rabbit IgG (H+L, source: Southern Biotech) as the detection antibody], the effect of the compound treatment on the cellular production of extracellular beta amyloid is quantified. Cells treated with compound are subsequently incubated in cell culture medium containing […]. After a short incubation period, MTS/medium containing plates are read in a spectrophotometer to determine the extent to which compound toxicity affected the cell's metabolism and ability to synthesize beta amyloid.
(§3) Test Samples: compound samples are supplied as 20 mM stock solutions in a 100% DMSO solution.
(§4) APP-REP-NL cells: Qualified cell lines are carried from week to week using 1:100 dilutions and are cultured in DMEM supplemented with 1× antibiotic/antimycotic, 200 μg/ml of G418 antibiotic, and 10% certified fetal calf serum. Cells are also banked in liquid nitrogen. Periodically, beta amyloid production is assessed, and cells are either kept in culture or replaced with progenitors at full expression.
(§5) Antibodies: Are from certified lots that have already been qualified in this assay. Antibodies are stored in small frozen aliquots at −80° C. that are thawed and used.
(§6) A compound is considered active if it has an EC50 for Aβ 40 reduction of <100 μM and no toxicity at doses in the vicinity the EC50.
Background: An ELISA detects its analyte on a solid surface through an enzyme-linked reagent.

The next data set has as its system beta amyloid 40. The data set is described as follows: Aβ40/42 ELISA Assay: Aβ40. Type of data set: cell-based. To be noted: Cricetulus griseus; CHO cells carrying the APP-REP-NL plasmid, 22 hours, sandwich ELISA of medium. How it is done:
as §1, §2, §3, §4, §5, §6

Compound `O=S(=O)(N[C@H](CO)C(CC(F)(F)F)CC(F)(F)F)c1ccc(Cl)cc1` [Example 2, 4-Chloro-N-[(1S)-4,4,4-trifluoro-1-hydroxymethyl-2-(2,2,2-trifluoro-ethyl)-butyl]-benzenesulfonamide] came in with a melting point of 186 to 187 °C. Further, in the data set on beta amyloid 42, the 50% effective concentration (EC50) worked out at 0.204 µM. For the same compound, in the data set with beta amyloid 40, the EC50 stood at 0.334 µM.

As to `Cc1cc(S(=O)(=O)NC(CO)C(C(F)(F)F)C(F)(F)F)ccc1F` (stereo not shown) [Example 25, 4-Fluoro-3-methyl-N-(3,3,3-trifluoro-1-hydroxymethyl-2-trifluoromethyl-propyl)-benzenesulfonamide], the EC50 was 8.37 µM in the data set on beta amyloid 42 and 6.63 µM with beta amyloid 40.

Regarding `O=S(=O)(NC(CO)C(C(F)(F)F)C(F)(F)F)c1ccc(F)cc1` (stereo not shown) [Example 26, 4-Fluoro-N-[3,3,3-trifluoro-1-(hydroxymethyl)-2-(trifluoromethyl)propyl]benzene sulfonamide], the figures for the EC50 in the data set on beta amyloid 42 and with beta amyloid 40 were 1.21 µM and 1.13 µM, respectively.

On to `O=S(=O)(NC(CO)C(C(F)(F)F)C(F)(F)F)c1cccc(F)c1` (stereo not shown) [Example 27, 3-fluoro-N-(3,3,3-trifluoro-1-hydroxymethyl-2-trifluoromethyl-propyl)-benzenesulfonamide], for which the concentration giving a half-maximal response (EC50) is 12.1 µM in the data set with beta amyloid 42 and 9.08 µM with beta amyloid 40.

Consider `O=S(=O)(NC(CO)C(C(F)(F)F)C(F)(F)F)c1ccccc1F` (stereo not shown) [Example 28, 2-fluoro-N-(3,3,3-trifluoro-1-hydroxymethyl-2-trifluoromethyl-propyl)-benzenesulfonamide], for which the EC50 turned out to be 44.2 µM in the data set with beta amyloid 42 and 23.4 µM with beta amyloid 40.

For `O=S(=O)(NC(CO)C(C(F)(F)F)C(F)(F)F)c1cccc(Cl)c1` (stereo not shown) [Example 29, 3-chloro-N-(3,3,3-trifluoro-1-hydroxymethyl-2-trifluoromethyl-propyl)-benzenesulfonamide], the half-maximal effective concentration (EC50) worked out at 37.2 µM with beta amyloid 42 and 24.2 µM in the data set on beta amyloid 40.

Take `O=S(=O)(NC(CO)C(C(F)(F)F)C(F)(F)F)c1ccccc1Cl` (stereo not shown) [Example 30, 2-chloro-N-(3,3,3-trifluoro-1-hydroxymethyl-2-trifluoromethyl-propyl)-benzenesulfonamide]: the EC50 in the data set with beta amyloid 42 was determined as 24.5 µM; in the data set on beta amyloid 40, 25.4 µM.

As to `O=S(=O)(NC(CO)C(C(F)(F)F)C(F)(F)F)c1ccc(Br)cc1` (stereo not shown) [Example 31, 4-bromo-N-(3,3,3-trifluoro-1-hydroxymethyl-2-trifluoromethyl-propyl)-benzenesulfonamide], the EC50 in the data set on beta amyloid 42 was determined as 0.905 µM; in the data set on beta amyloid 40, 0.886 µM.

For the compound `O=S(=O)(NC(CO)C(C(F)(F)F)C(F)(F)F)c1cccc(Br)c1` (stereo not shown) [Example 32, 3-bromo-N-(3,3,3-trifluoro-1-hydroxymethyl-2-trifluoromethyl-propyl)-benzenesulfonamide], the 50% effective concentration (EC50) in the data set with beta amyloid 42 was 25.3 µM; in the data set on beta amyloid 40 it was 19.8 µM.

On to `O=S(=O)(NC(CO)C(C(F)(F)F)C(F)(F)F)c1ccccc1` (stereo not shown) [Example 33, N-(3,3,3-trifluoro-1-hydroxymethyl-2-trifluoromethyl-propyl)-benzenesulfonamide], for which the results for the EC50 with beta amyloid 42 and in the data set on beta amyloid 40 were 7.02 µM and 6.26 µM, respectively.

Consider `O=S(=O)(NC(CO)C(C(F)(F)F)C(F)(F)F)c1ccc(F)c(F)c1` (stereo not shown) [Example 34, 3,4-difluoro-N-(3,3,3-trifluoro-1-hydroxymethyl-2-trifluoromethyl-propyl)-benzenesulfonamide], for which the figures for the EC50 with beta amyloid 42 and with beta amyloid 40 were 2.4 µM and 2.22 µM, respectively.

Turning to `O=S(=O)(NC(CO)C(C(F)(F)F)C(F)(F)F)c1ccc(F)cc1F` (stereo not shown) [Example 35, 2,4-difluoro-N-(3,3,3-trifluoro-1-hydroxymethyl-2-trifluoromethyl-propyl)-benzenesulfonamide], the EC50 worked out at 11.2 µM with beta amyloid 42 and 9.77 µM in the data set with beta amyloid 40.

Turning to `O=S(=O)(NC(CO)C(C(F)(F)F)C(F)(F)F)c1cccc(Cl)c1Cl` (stereo not shown) [Example 37, 2,3-dichloro-N-(3,3,3-trifluoro-1-hydroxymethyl-2-trifluoromethyl-propyl)-benzenesulfonamide], the figures for the EC50 in the data set with beta amyloid 42 and in the data set on beta amyloid 40 were 14 µM and 11.1 µM, respectively.

In the case of `O=S(=O)(NC(CO)C(C(F)(F)F)C(F)(F)F)c1ccc(Cl)c(Cl)c1` (stereo not shown) [Example 38, 3,4-dichloro-N-(3,3,3-trifluoro-1-hydroxymethyl-2-trifluoromethyl-propyl)-benzenesulfonamide], the EC50 in the data set on beta amyloid 42 stood at 6.55 µM; with beta amyloid 40, 4.68 µM.

As for `O=S(=O)(NC(CO)C(C(F)(F)F)C(F)(F)F)c1ccc(F)c(Cl)c1` (stereo not shown) [Example 39, 3-chloro-4-fluoro-N-[3,3,3-trifluoro-1-(hydroxymethyl)-2-(trifluoromethyl)propyl]benzenesulfonamide], the EC50 stood at 8.62 µM in the data set on beta amyloid 42 and 6.72 µM with beta amyloid 40.

`O=S(=O)(NC(CO)C(C(F)(F)F)C(F)(F)F)c1ccc(F)c(F)c1F` (stereo not shown) [Example 40, 2,3,4-trifluoro-N-(3,3,3-trifluoro-1-hydroxymethyl-2-trifluoromethyl-propyl)-benzenesulfonamide]: the EC50 in the data set with beta amyloid 42 was determined as 45.4 µM; in the data set with beta amyloid 40 it was 32.2 µM.

Regarding `O=S(=O)(N[C@H](CO)C(C(F)(F)F)C(F)(F)F)c1ccc(Cl)c(Cl)c1` [Example 41, (S)-3,4-Dichloro-N-[3,3,3-trifluoro-1-(hydroxymethyl)-2-(trifluoromethyl)propyl]benzene sulfonamide], the EC50 in the data set with beta amyloid 42 amounted to 5.37 µM; in the data set with beta amyloid 40 it was 5.57 µM.

As for `O=S(=O)(NC(CO)C(C(F)(F)F)C(F)(F)F)c1cc(F)c(F)c(F)c1` (stereo not shown) [Example 42, 3,4,5-Trifluoro-N-(3,3,3-trifluoro-1-hydroxymethyl-2-trifluoromethyl-propyl)-benzene sulfonamide], the EC50 was 5.5 µM in the data set with beta amyloid 42 and 6.63 µM in the data set with beta amyloid 40.

Consider `C[C@@H]([C@@H](CO)NS(=O)(=O)c1ccc(Cl)cc1)C(F)(F)F` [Example 43, 4-Chloro-N-[(1S,2S)-3,3,3-trifluoro-1-(hydroxymethyl)-2-methylpropyl]benzenesulfonamide], for which the EC50 in the data set on beta amyloid 42 is 0.384 µM; in the data set with beta amyloid 40, 0.423 µM.

In the case of `C[C@H]([C@@H](CO)NS(=O)(=O)c1ccc(Cl)cc1)C(F)(F)F` [Example 44, 4-Chloro-N-[(1S,2R)-3,3,3-trifluoro-1-(hydroxymethyl)-2-methylpropyl]benzenesulfonamide], the EC50 was 3.51 µM in the data set with beta amyloid 42 and 2.94 µM in the data set on beta amyloid 40.

Turning to `O=S(=O)(NC(CO)C(CC(F)(F)F)CC(F)(F)F)c1ccc(Cl)cc1` (stereo not shown) [Example 45, 4-Chloro-N-[4,4,4-trifluoro-1-hydroxymethyl-2-(2,2,2-trifluoro-ethyl)-butyl]-benzenesulfonamide], the EC50 is 0.504 µM in the data set with beta amyloid 42 and 0.518 µM in the data set on beta amyloid 40.

Consider `C[C@@H]([C@@H](CO)NS(=O)(=O)c1ccc(Cl)c(Cl)c1)C(F)(F)F` [Example 46, 3,4-Dichloro-N-[(1S,2S)-3,3,3-trifluoro-1-(hydroxymethyl)-2-methylpropyl]benzenesulfonamide], for which the half-maximal effective concentration (EC50) in the data set on beta amyloid 42 worked out at 4.84 µM; in the data set on beta amyloid 40 it was 5.07 µM.

In the case of `C[C@@H]([C@@H](CO)NS(=O)(=O)c1ccc(C(F)(F)F)cc1)C(F)(F)F` [Example 47, N-[(1S,2S)-3,3,3-Trifluoro-1-(hydroxymethyl)-2-methylpropyl]-4-(trifluoromethyl)benzenesulfonamide], the EC50 in the data set on beta amyloid 42 amounted to 1.17 µM; with beta amyloid 40, 1.4 µM.

Consider `C[C@@H]([C@@H](CO)NS(=O)(=O)c1ccc(F)cc1)C(F)(F)F` [Example 48, 4-Fluoro-N-[(1S,2S)-3,3,3-trifluoro-1-(hydroxymethyl)-2-methylpropyl]benzenesulfonamide], for which the EC50 came to 0.563 µM in the data set on beta amyloid 42 and 0.651 µM with beta amyloid 40.
